Measurements published in patent US8183234B2, “Tricyclic guanidine derivatives as sodium-proton exchange inhibitors” (Piramal Life Sciences Limited, priority 2004, dated 2012).
Structures can show the parent of a compound that is named as a salt.

Target: T1, NHE-1 (Homo sapiens, UniProt P19634)
T1 construct: NHE-1 isoform which is predominantly present in human platelets; endogenous in cells; host or cells: human platelets (platelet rich plasma from blood of healthy volunteers)
Test: Primary screening assay in human platelets (acidified human platelet swelling assay)
Assay type: cell-based
Details: concentration required to inhibit 50% of NHE-1 activity in isolated human platelets; mean of three readings, PRP from three donors
Method: Experiments on inhibition of NHE in human platelets are based on those published in (Cardiovasc. Res. 29: 260-268, (1995), J. Med. Chem. 41, 3736-3747, (1998)) Blood (150 mL) collected in a siliconized glass bottle from healthy volunteers was treated with aqueous acid citrate dextrose (ACD) solution (25 mL) [composition: citric acid (38 mM/L), glucose (136 mM/L) and trisodium citrate (75 mM/L)] and immediately centrifuged at 200 g for 20 min. The platelet rich plasma (PRP) was separated and a platelet count carried out using a Beckman Coulter A^c T® cell counter. The cell count was adjusted to 3×10^8 platelets/mL using platelet free plasma.
Activation of Na^+/H^+ exchanger by intracellular acidification: 150 μL of PRP was added to 750 μL of propionate buffer [composition: KCl (5 mM/L), CaCl2 (1 mM/L), MgCl2 (1 mM/L), glucose (10 mM/L), HEPES (20 mM/L), sodium propionate (140 mM/L)] of pH 6.6, in a cuvette. Optical density was recorded at 630 nm using a Shimadzu spectrophotometer (UV 1601). The micromolar concentrations of a few representative compounds required to inhibit 50% of NHE-1 activity (IC50), in isolated human platelets (acidified human platelet swelling assay) is shown in Table 2. IC50 values are the mean of three experimental readings using PRP isolated from the blood of three different donors.

T1 sequence (P19634 whole entry, canonical isoform): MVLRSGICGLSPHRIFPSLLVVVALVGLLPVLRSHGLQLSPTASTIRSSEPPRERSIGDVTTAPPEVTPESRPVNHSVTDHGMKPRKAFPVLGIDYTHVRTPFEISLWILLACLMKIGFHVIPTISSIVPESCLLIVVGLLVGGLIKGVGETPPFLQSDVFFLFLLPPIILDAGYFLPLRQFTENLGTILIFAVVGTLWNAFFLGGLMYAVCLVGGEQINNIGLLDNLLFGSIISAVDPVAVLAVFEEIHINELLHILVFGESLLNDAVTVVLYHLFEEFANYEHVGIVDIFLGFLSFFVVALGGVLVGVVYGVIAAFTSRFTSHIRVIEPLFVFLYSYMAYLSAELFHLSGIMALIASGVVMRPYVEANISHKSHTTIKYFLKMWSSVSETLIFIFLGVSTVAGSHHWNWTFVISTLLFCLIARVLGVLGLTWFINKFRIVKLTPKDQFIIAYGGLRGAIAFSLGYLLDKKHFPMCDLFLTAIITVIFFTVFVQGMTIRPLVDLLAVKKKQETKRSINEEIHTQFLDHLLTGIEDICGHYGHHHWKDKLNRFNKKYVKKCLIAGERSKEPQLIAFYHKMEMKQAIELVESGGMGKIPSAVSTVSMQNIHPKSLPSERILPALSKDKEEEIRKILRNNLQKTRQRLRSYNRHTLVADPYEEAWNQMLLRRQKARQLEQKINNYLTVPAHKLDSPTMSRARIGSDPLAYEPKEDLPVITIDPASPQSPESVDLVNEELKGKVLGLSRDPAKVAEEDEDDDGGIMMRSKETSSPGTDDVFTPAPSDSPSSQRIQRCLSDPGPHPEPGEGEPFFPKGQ

IC50 [nM] | SMILES
100 | Cc1cc(C(=O)N=C(N)N)cc2c1Oc1c(Cl)cc(N3CCN(Cc4ccccc4)CC3)cc1CS2(=O)=O [Example 118, N-[2-(4-Benzyl-piperazin-1-yl)-4-chloro-6-methyl-10,10-dioxo-10,11-dihydro-5-oxa-10lambda*6*-thia-dibenzo[a,d]cycloheptene-8-carbonyl]-guanidine dimesylate]
100 | Cc1cc2c(cc1C(=O)N=C(N)N)S(=O)(=O)Cc1ccccc1N2 [Example 183, N-(7-Methyl-10,10-dioxo-10,11-dihydro-5H-10lambda*6*-thia-5-aza-dibenzo[a.d]cycloheptene-8-carbonyl)-guanidine, methane sulfonic acid salt]
200 | Cc1cc(C(=O)N=C(N)N)cc2c1N(C)c1c(Cl)cccc1C(C)S2(=O)=O (stereo not shown) [Example 194, N-(4-Chloro-5,6,11-trimethyl-10,10-dioxo-10,11-dihydro-5H-10lambda*6*-thia-5-aza-dibenzo[a.d]cycloheptene-8-carbonyl)-guanidine, methane sulfonic acid salt]
32 | CCN(CCN1CCCC1)c1cc(Cl)c2c(c1)CS(=O)(=O)c1cc(C(=O)N=C(N)N)cc(C)c1O2 [Example 73, N-{4-Chloro-2-[ethyl-(2-pyrrolidin-1-yl-ethyl)-amino]-6-methyl-10,10-dioxo-10,11-dihydro-5-oxa-10lambda*6*-thia-dibenzo[a,d]cycloheptene-8-carbonyl}-guanidine dimesylate]
87 | Cc1cc(C(=O)N=C(N)N)cc2c1Oc1c(Cl)cc(N3CCN(C4CC4)CC3=O)cc1CS2(=O)=O [Example 58, N-[4-Chloro-2-(4-cyclopropyl-2-oxo-piperazin-1-yl)-6-methyl-10,10-dioxo-10,11-dihydro-5-oxa-10lambda*6*-thia-dibenzo[a,d]cycloheptene-8-carbonyl]-guanidine dimesylate]
200 | Cc1cc(C(=O)N=C(N)N)cc2c1Oc1c(cccc1C(C)C)CS2(=O)=O [Example 31, N-(4-Isopropyl-6-methyl-10,10-dioxo-10,11-dihydro-5-oxa-10lambda*6*-thia-dibenzo[a,d]cycloheptene-8-carbonyl)-guanidine, methane sulfonic acid salt]
80 | Cc1cc(C(=O)N=C(N)N)cc2c1Oc1c(Cl)cc(S(=O)(=O)NCc3cccnc3)cc1CS2(=O)=O [Example 52, 4-Chloro-8-guanidinocarbonyl-6-methyl-10,10-dioxo-10,11-dihydro-5-oxa-10lambda*6*-thia-dibenzo[a,d]cycloheptene-2-sulfonic acid (pyridin-3-ylmethyl)-amide dimesylate]
100 | Cc1cc2c(cc1C(=O)N=C(N)N)S(=O)(=O)Cc1ccccc1O2 [Example 27, N-(7-Methyl-10,10-dioxo-10,11-dihydro-5-oxa-10lambda*6*-thia-dibenzo[a,d]cycloheptene-8-carbonyl)-guanidine, methane sulfonic acid salt]
20 | Cc1cc(C(=O)N=C(N)N)cc2c1Oc1c(Cl)cc(N)cc1CS2(=O)=O [Example 35, N-(2-Amino-4-chloro-6-methyl-10,10-dioxo-10,11-dihydro-5-oxa-10lambda*6*-thia-dibenzo[a,d]cycloheptene-8-carbonyl)-guanidine, methane sulfonic acid salt]
40 | Cc1cc(N)cc2c1Oc1c(Cl)cc(C(=O)N=C(N)N)cc1S(=O)(=O)C2 [Example 48, N-(2-Amino-6-chloro-4-methyl-10,10-dioxo-10,11-dihydro-5-oxa-10lambda*6*-thia-dibenzo[a,d]cycloheptene-8-carbonyl)-guanidine, methane sulfonic acid salt]
70 | NC(N)=NC(=O)c1cc(Cl)c2c(c1)S(=O)(=O)Cc1cccc(Cl)c1O2 [Example 45, 4,6-Dichloro-10,10-dioxo-10,11-dihydro-5-oxa-10lambda*6*-thia-dibenzo[a,d]cycloheptene-8-carbonylguanidine, methane sulfonic acid salt]
30 | Cc1cc(C(=O)N=C(N)N)cc2c1Oc1c(Cl)cc(CN)cc1CS2(=O)=O [Example 198, N-(2-Aminomethyl-4-chloro-6-methyl-10,10-dioxo-10,11-dihydro-5-oxa-10lambda*6*-thia-dibenzo[a.d]cycloheptene-8-carbonyl)-guanidine trimesylate]
28 | Cc1cc(C(=O)N=C(N)N)cc2c1Oc1c(Cl)cc(NCCn3ccnc3)cc1CS2(=O)=O [Example 64, N-[4-Chloro-2-(2-imidazol-1-yl-ethylamino)-6-methyl-10,10-dioxo-10,11-dihydro-5-oxa-10lambda*6*-thia-dibenzo[a,d]cycloheptene-8-carbonyl]-guanidine dimesylate]
